row,SMILES,melting point
1,COc1cc2cc3c(Nc4ccc(Sc5nccn5C)c(Cl)c4)c(C#N)cnc3cc2cc1OCCCl,275 to 280 °C
2,N#Cc1cc(C(F)(F)F)cnc1O,170 to 175 °C
3,CC(CNC(=O)OC(C)(C)C)C(=O)NC(CC(=O)OCc1ccccc1)C(N)=O (mixture of isomers),135 to 136 °C
4,Oc1ccc(Nc2ncc3ncc(Cl)cc3n2)cc1,232 to 234 °C
5,c1ccc(-c2ccc(Cc3ccco3)[nH]2)cc1,79 to 80 °C
6,COc1cc(C(=O)CN2CCN(c3ccncc3)CC2)ccc1OCC(=O)O,218 to 224 °C
7,Cc1nnc(-c2ccc3occ(-c4cn[nH]c4)c3c2)o1,215 to 216 °C
8,CSc1ccc2c(=O)cc(C(=O)N[C@H]3CCN(C(=O)c4cc(C(F)(F)F)cc(C(F)(F)F)c4)[C@H](Cc4ccc(Cl)cc4)C3)oc2c1,137 to 140 °C
9,CC(Oc1ncn(-c2ccc(Cl)c(Cl)c2)n1)C(=O)O (configuration not stated),222 to 224 °C
10,N#CC1(c2ccc(C(=O)c3cccs3)cc2)CC1,106 °C
11,O=C(OCCN1CCN(c2cccc(C(F)(F)F)c2)CC1)c1sccc1Nc1ccnc2cc(Cl)ccc12,80 °C
12,COc1ccc2c(c1)Oc1cscc1C(N1CCN(C)CC1)=N2,188 to 189 °C
13,CC(C)(O)C1CCN(Cc2ccc(COc3cccc4c3CN(C3CCC(=O)NC3=O)C4=O)cc2)CC1 (configuration not stated),160 to 162 °C
14,O=C(/C=C/c1ccc(N2CCCCC2)cc1)CC(=O)/C=C/c1ccc2cc[nH]c2c1,91 to 96 °C
15,O=C1c2ccccc2C(=O)N1C1CCC(c2cc(F)c(Br)cc2F)C1 (configuration not stated),44 to 47 °C
16,Cc1nc(C)c(C(=O)Nc2cc(Oc3ccc4nc(NC(=O)C5CC5)cn4n3)ccc2F)o1,202 °C
17,CC(=O)Nc1ccc(C(=O)N(CCN2CCC(C(=O)c3ccc(F)cc3)CC2)c2ccc(O)cc2)cc1,133 to 137 °C
18,Cc1nc(O)c2c(n1)CCN(c1nc(C)nc(O)c1[N+](=O)[O-])CC2,> 200 °C
19,O=[N+]([O-])c1c(NCCO)cc(NCCO)cc1NCCO,200 °C
20,C=CCOc1cccc(C2=NNC(=O)CC2)c1,111 to 113 °C
21,CC(C)(C)c1cc(N=C(O)c2cc(C(O)=Nc3cc(C(C)(C)C)c(O)c(C(C)(C)C)c3)c(C(=O)O)cc2C(=O)O)cc(C(C)(C)C)c1O,304 to 306 °C

row,SMILES,melting point
1,CCn1ncc2c(NN=C(C)C)c(C(N)=O)cnc21,217 to 218 °C
2,CC1(C)CCC(C)(C)c2cc(NC(=O)c3ccc(C(=O)O)nc3)ccc21,200 to 201 °C
3,c1nnc2cc3c(cc2c1NCC1CCCO1)OCO3 (configuration not stated),196 to 198 °C
4,COc1ccc(-n2cnc(OC(C)C(=O)O)n2)cc1 (configuration not stated),155 to 157 °C
5,Cc1ccsc1C(Cc1ccccc1N)N(C)C (configuration not stated),75 to 77 °C
6,Cc1cc2c(s1)Oc1cccc(C)c1NC2=O,198 to 200 °C
7,CC(=O)NCCc1c[nH]c2ccc(OC(=O)Oc3ccc([N+](=O)[O-])cc3)cc12,153 to 156 °C
8,Cc1cc(F)ccc1-c1nc(NC2CCCCC2)nc2c1ccc(=O)n2-c1c(F)cccc1F,218 to 219 °C
9,C#CCN(C(=O)OC(C)(C)C)c1cn(-c2cncc(F)c2)nc1C,81 to 82 °C
10,N#CC1CN1C(=O)NC(=O)C=Cc1ccccc1 (configuration not stated),134 to 136 °C
11,O=S(=O)(Nc1ccc2c(OCc3cccc(-c4ccc(C(F)(F)F)cc4)n3)cccc2c1)C(F)(F)F,180 to 182 °C
12,CCCC1=C(C#N)C(c2cccc(Cl)c2Cl)c2c[nH]nc2N1 (configuration not stated),242 °C
13,C[C@H](O)[C@@H](COc1ccc(Cl)c(Cl)c1)n1cnc(C(N)=O)c1,115 to 121 °C
14,O=C(O)Cc1ccc2c(c1)C(=O)c1cc(F)ccc1CO2,173 to 175 °C
15,CC(=O)OC1CSC(Oc2cccnc2-c2ccco2)C(OC(C)=O)C1OC(C)=O (configuration not stated),160 °C
16,CC(C)(C)OC(=O)CON=C(C(=O)O)c1cccs1,88.3 to 91.3 °C
17,COC(=O)CCc1ccc(OCC2CCN(c3ccncc3)CC2)cc1,96.5 to 98.5 °C
18,OOC1(OO)C2CC3CC(C2)CC1C3,144 to 145 °C
19,N#Cc1cnc2cc(Br)ccc2c1Nc1ccc(Oc2ccccc2)cc1,205 to 207 °C
20,C=CCN1C(=O)C(C)N(c2ccc(Cc3ccccc3)cc2)C1=S (configuration not stated),62 to 64 °C
21,O=C(Nc1ccc(Oc2ccnc(N3CCOCC3)n2)c2ccccc12)c1cc(F)cc(N2CCOCC2)c1,104 to 106 °C

row,SMILES,melting point
1,CC(C)(CNc1ccc(C(=O)CCCC(=O)O)cc1)[N+](=O)[O-],160 to 161 °C
2,O=C(NC1CCS(=O)(=O)CC1)NC12CC3CC(CC(C3)C1)C2,244 to 246 °C
3,N#Cc1c(N2CCCCC2)cc(-c2cccc3ccccc23)c2c1-c1ccccc1C2=O,180 to 182 °C
4,Cc1nsc(-c2ccc(N3CCN(c4cccc(C(F)(F)F)c4)CC3)nn2)n1,173 °C
5,O=C(O)c1cc(OCCCCCCCCCCCCOc2ccccc2)ccc1OCc1ccccc1,85 to 87 °C
6,Cn1cc(C(=O)Cl)c([N+](=O)[O-])n1,68 to 70 °C
7,C#CCN(C(C)=O)c1cccc(-c2ccc3nncn3n2)c1,195 to 198 °C
8,CSc1cc(C)nc(SC)c1NC(=O)CCCCCCSc1nc2c(C)c(Cl)cc(C(C)C)c2o1,129 to 131 °C
9,CCOc1ccc(C(=O)NCc2ccc3c(c2)C(=O)N(C2(C)CCC(=O)NC2=O)C3=O)cc1 (configuration not stated),163 to 165 °C
10,COC(=O)c1cc(-c2ccc(OC)c(F)c2)nn(CC=Cc2ccc(Cl)cc2)c1=O,131 to 132 °C
11,COc1c(CC(C(=O)O)C(=O)O)cccc1C(=O)c1ccc(Cl)cc1,142 °C
12,O=C1C(=CO)C(c2ccccc2[N+](=O)[O-])=NN1c1ccc(Cl)cc1,155 to 157 °C
13,O=C1CCC(N2C=Nc3ccccc3C2)C(=O)N1 (configuration not stated),258 °C
14,COc1ccc(NS(=O)(=O)c2ccc(N3CCC(NC[C@H](O)COc4ccc(OCc5ccccc5)cc4)CC3)cc2)cc1OC,113 to 121 °C
15,CCC[C@@H]1COC(=O)N1c1nc(-c2ccc(C#N)cc2)cs1,131 to 133 °C
16,N#CCc1cc(N)c(F)cc1Cl,85 to 86 °C
17,CCCCNC(=O)C1CCCCC1(O)C(=O)c1ccc(OC)cc1 (configuration not stated),94 to 95 °C
18,CC(=O)Nc1nc(CCCl)cs1,161 to 163 °C
19,CCCCCCCC(=N)NC(=O)Nc1ccc(Cl)cc1,156 to 165 °C
20,COCCOC(=O)C1=C(C)NN=C(C(=O)OC(C)C)C1c1cccc([N+](=O)[O-])c1 (configuration not stated),146 to 148 °C

# Second part, the compound after the results:
row,melting point,SMILES
1,169 to 171 °C,CCc1nc2c(N)nc3ccccc3c2n1CCOCCNS(C)(=O)=O
2,140 to 141 °C,CCCC(CCC)n1nnc2c(Nc3c(Br)cc(OC)cc3OC)nc(C)cc21
3,240 to 241 °C,CCCc1c(C#N)c2ccc(C(=O)O)cc2n1Cc1ccccc1Cl
4,155 °C,COc1ccc(CN(C)CCCc2ccc(NC(=O)c3cccc4c(=O)c5ccccc5[nH]c34)cc2)cc1
5,148 to 150 °C,COc1ccc2c(c1)c(S(=O)(=O)c1ccccc1)cn2CCCl
6,212 to 215 °C,N#Cc1cccn2cc(-c3ccc(C(=O)NCCC(=O)O)cc3)nc12
7,117 to 118 °C,C#Cc1c(-c2ccc(F)cc2)nn(-c2ccccc2)c1C(C)C
8,66 to 67 °C,CCCn1cnc(NC)c1C(=O)NCCCCCCOc1ccc(Cl)cc1
9,91 to 93 °C,CCN(CC)C(=O)c1ccc2ccccc2c1-c1cccc(OC)c1
10,156 to 159 °C,CS(=O)(=O)c1ccc(-n2cc(-c3cccc(Cl)c3)nc2-c2ccc(Cl)cc2)cc1
11,109 to 112 °C,C[C@@H](n1cnc2cc(Br)ccc2c1=O)[C@](O)(Cn1cncn1)c1ccc(F)cc1F
12,84 to 86 °C,Clc1nc2ccccc2cc1C=C1CCCC1
13,211 to 212 °C,O=C(Cn1c(-c2cccc(Cl)c2)nc2cccnc21)Nc1ccccc1
14,151 to 152 °C,Cn1c(CO)nnc1NCCCOc1cccc(CN2CCCCC2)c1
15,61 to 64 °C,CC(C)(C(=O)c1ccc(SCCCCCCS)cc1)N1CCOCC1
16,165 to 167 °C,O=C(Nc1n[nH]c(=S)s1)NC(Cc1ccccc1)C(=O)NCCN1CCOCC1 (configuration not stated)
17,173 to 174 °C,CN(C)CCNC(=O)Cc1ccc(NC(=O)CCc2nc(-c3ccc4ccccc4c3)no2)cc1
18,> 250 °C,Cn1ncc(C(=O)N[C@H]2CCOC2)c1C(=O)Nc1ccn2nc(-c3ccccc3)nc2c1

row,melting point,SMILES
1,115 °C,CCOC(=O)C1=C(N2CCCC2)N=C(C)C(C(=O)OCC)C1c1ccccc1C#N (configuration not stated)
2,223 to 225 °C,Cn1cc(-c2ccccc2)c(=O)c(-c2cccc(O)c2)c1
3,64 to 65 °C,CCC1(C)CC(S(=O)(=O)Cc2c(F)cccc2F)=NO1 (configuration not stated)
4,178 to 188 °C,CCCc1nc2c(N)nc3ccccc3c2n1CCCCN(OC)S(C)(=O)=O
5,39 to 41 °C,O=C1c2ccccc2OCN1CCCCCO[N+](=O)[O-]
6,86 to 90 °C,CCCc1c(OCCCOCCCOc2c(C(C)=O)ccc(OCC(=O)O)c2CCC)ccc(C(C)=O)c1O
7,140 to 142 °C,CC1=C(CCN(O)C(N)=O)/C(=C/c2ccc(S(C)(=O)=O)cc2)c2ccccc21
8,97 to 98 °C,CCCN(Cc1ccc(-c2ccccc2-c2nnn[nH]2)cc1)C1(C(=O)O)C=NSN1 (configuration not stated)
9,276 to 278 °C,COC(=O)c1cc(=O)c2oc3ccc(Cl)cc3c(=O)c2n1C
10,72 to 73 °C,CNS(=O)(=O)Cc1ccc2[nH]cc(CCN=CNc3ccccc3)c2c1
11,214 to 216 °C,Nc1nc(-c2ccc(NC(=O)CN(Cc3ccccc3)C(=O)C3CCCCC3)cc2)cs1
12,115 to 157 °C,CC(C)COc1ccc(-c2ccc3nnn(Cc4ccc5ccccc5n4)c3n2)cc1F
13,144 °C,CC(C)c1ccc(S(=O)(=O)n2c(CCCC(=O)O)cc3nc(C(F)(F)F)ccc32)cc1
14,223 to 225 °C,Nc1cc(=O)[nH]c2c1cnn2-c1ccccc1
15,219 to 221 °C,CCCn1nc(-c2cnc3[nH]cc(C(=O)N[C@H](C)C(=O)N4CC(C#N)C4)c3n2)c2ccc(Cl)cc21
16,150 to 152 °C,CCc1nc(Cc2ccc(NC(=O)/C=C/c3cnn(C)c3-c3ccc(F)cc3)cc2)no1
17,146 to 149 °C,COC(=O)NCCc1ccc(C(=O)OC)c(S(N)(=O)=O)c1

# Reference: a melting point compilation (Tetko et al.; mined from patent text by program, amines drawn as free bases though some values may be those of a salt)
